What was measured:
[1] = tested on: B. napus mutant FM 202 (ALS I A190V, ALS III W556L); test: ALS-inhibitor herbicide injury on B. napus, greenhouse spray trial, visual scoring; type: in vivo, Brassica napus
Method: (§1) The individual components herbicide and surfactant with regard to type and application rate as stated in table I were added with stirring to a water application rate of 300 l/ha so that a homogeneous spray mixture was formed.
(§2) Seeds of B. napus were sown in a sandy loam soil and placed in a climate chamber in a greenhouse under good growth conditions (16 h light, temperature day 14° C., night: 8° C.). The plants were grown up to growth stage of BBCH 12 to BBCH 13. […] After the treatment, the plants were returned to the climate chamber.
(§3) Visual scoring was carried out using a percentage scale of 0%=no damage to 100%=all plants dead.

[2] = tested on: B. napus wild type line SR002201 (NCIMB 41813); test: as above; type: in vivo, Brassica napus
Method: as §1, §2, §3

[3] = tested on: B. napus plants of the present invention; test: Sensitivity to ALS inhibitor herbicide compared to wild type; set-up: species or system Brassica napus; details: B. napus plant described in the Examples vs wild type
[4] = tested on: plants regenerated from the clone FM202; test: Growth of regenerated plants in presence of herbicide; type: cell-based, Brassica napus; details: high concentration of ALS inhibitor (selection at 10^−4 M)
[5] = Brassica napus, 336 h, 7 g a.i./ha, spray at BBCH 12-13 with Mero 1 l/ha, visual scoring 14 days after application, 0%=no damage, 100%=all plants dead
[6] = 30 g a.i./ha, spray at BBCH 12-13 with Mero 1 l/ha, visual scoring 14 days after application, 0%=no damage, 100%=all plants dead
[7] = Brassica napus, 336 h, 35 g a.i./ha, spray at BBCH 12-13 with Mero 1 l/ha, visual scoring 14 days after application, 0%=no damage, 100%=all plants dead
[8] = 20 g a.i./ha, spray at BBCH 12-13 with Mero 1 l/ha, visual scoring 14 days after application, 0%=no damage, 100%=all plants dead
[9] = 15 g a.i./ha, spray at BBCH 12-13 with Mero 1 l/ha, visual scoring 14 days after application, 0%=no damage, 100%=all plants dead
[10] = Brassica napus, 336 h, 30 g a.i./ha, spray at BBCH 12-13 with Mero 1 l/ha, visual scoring 14 days after application, 0%=no damage, 100%=all plants dead

## COc1nc(C)nc(NC(=O)NS(=O)(=O)c2cc(I)ccc2C(=O)O)n1 [Iodosulfuron]
[1]; [5]
  pest or weed control at 7 g/ha: 0%
[2]; [5]
  pest or weed control at 7 g/ha: 95%

## CCOc1ccccc1OS(=O)(=O)NC(=O)Nc1nc(OC)cc(OC)n1 [Ethoxysulfuron]
[1]; 60 g a.i./ha, spray at BBCH 12-13 with Mero 1 l/ha, visual scoring 14 days after application, 0%=no damage, 100%=all plants dead
  Herbicide injury on B. napus FM 202: 0%

## COc1nc(C)nc(N(C)C(=O)NS(=O)(=O)c2ccccc2C(=O)O)n1 [Tribenuron]
[1]; [6]
  Herbicide injury on B. napus FM 202: 3%
[2]; [6]
  Herbicide injury on B. napus SR002201: 95%

## COc1nc(C)nc(NC(=O)NS(=O)(=O)c2ccccc2Cl)n1 [Chlorsulfuron]
[1]; 9 g a.i./ha, spray at BBCH 12-13 with Mero 1 l/ha, visual scoring 14 days after application, 0%=no damage, 100%=all plants dead
  Herbicide injury on B. napus FM 202: 0%

## COc1cc(OC)nc(NC(=O)NS(=O)(=O)c2cc(NC=O)ccc2C(=O)N(C)C)n1 [Foramsulfuron]
[1]; [7]
  pest or weed control at 35 g/ha: 0%
[2]; [7]
  pest or weed control at 35 g/ha: 75%
[3]
  times less sensitive to the ALS inhibitor herbicide compared to the wild type enzyme: at least 1000 times

## COc1nc(C)nc(=NC(=O)NS(=O)(=O)c2ccccc2C(=O)O)[nH]1 [Metsulfuron]
[1]; Brassica napus, 336 h, read-out: Herbicide injury on B. napus FM 202
  pest or weed control at 8 g/ha: 0%
[2]; Brassica napus, 336 h, read-out: Herbicide injury on B. napus SR002201
  pest or weed control at 8 g/ha: 93%

## COc1nn(C(=O)NS(=O)(=O)c2c(C(=O)O)csc2C)c(=O)n1C [Thiencarbazone]
[1]; [8]
  Herbicide injury on B. napus FM 202: 0%
[2]; [8]
  Herbicide injury on B. napus SR002201: 90%

## COc1cc(OC)nc(NC(=O)[N-]S(=O)(=O)c2ncccc2C2=NOCCO2)n1.[Na+] [Compound of formula (I)]
[4]
  growth of plants regenerated from clone FM202 in presence of the ALS inhibitor: able to grow

## COCc1cnc(C2=NC(C)(C(C)C)C(=O)N2)c(C(=O)O)c1 (stereo not drawn) [Imazamox]
[1]; 40 g a.i./ha, spray at BBCH 12-13 with Mero 1 l/ha, visual scoring 14 days after application, 0%=no damage, 100%=all plants dead
  Herbicide injury on B. napus FM 202: 0%

## COc1cc(OC)nc(NC(=O)NS(=O)(=O)c2cc(CNS(C)(=O)=O)ccc2C(=O)O)n1 [Mesosulfuron]
[1]; [9]
  Herbicide injury on B. napus FM 202: 0%
[2]; [9]
  Herbicide injury on B. napus SR002201: 90%

## Cc1cccc(C(=O)O)c1S(=O)(=O)NC(=O)Nc1nc(OCC(F)(F)F)nc(N(C)C)n1 [Triflusulfuron]
[1]; [8]
  Herbicide injury on B. napus FM 202: 0%
[2]; [8]
  Herbicide injury on B. napus SR002201: 65%

## COc1cc(OC)nc(NC(=O)NS(=O)(=O)N(C)S(C)(=O)=O)n1 [Amidosulfuron]
[1]; [10]
  pest or weed control at 30 g/ha: 0%
[2]; [10]
  pest or weed control at 30 g/ha: 93%
